From patent US8044198B2, “Sirtuin modulating compounds” (Sirtris Pharmaceuticals, Inc., priority 2005, dated 2011)

Assays:
[1] = molecular target: T1, SIRT1 (Homo sapiens, UniProt Q96EB6); test: SIRT1 fluorescence polarization (FP) deacetylation assay with p53-based peptide substrates; type: biochemical; conditions: for EC50: SIRT1 activation, read-out: ED50 FP ASSAY; for IC50: Sirt1 Inhibitors
T1 sequence (Q96EB6 1-747): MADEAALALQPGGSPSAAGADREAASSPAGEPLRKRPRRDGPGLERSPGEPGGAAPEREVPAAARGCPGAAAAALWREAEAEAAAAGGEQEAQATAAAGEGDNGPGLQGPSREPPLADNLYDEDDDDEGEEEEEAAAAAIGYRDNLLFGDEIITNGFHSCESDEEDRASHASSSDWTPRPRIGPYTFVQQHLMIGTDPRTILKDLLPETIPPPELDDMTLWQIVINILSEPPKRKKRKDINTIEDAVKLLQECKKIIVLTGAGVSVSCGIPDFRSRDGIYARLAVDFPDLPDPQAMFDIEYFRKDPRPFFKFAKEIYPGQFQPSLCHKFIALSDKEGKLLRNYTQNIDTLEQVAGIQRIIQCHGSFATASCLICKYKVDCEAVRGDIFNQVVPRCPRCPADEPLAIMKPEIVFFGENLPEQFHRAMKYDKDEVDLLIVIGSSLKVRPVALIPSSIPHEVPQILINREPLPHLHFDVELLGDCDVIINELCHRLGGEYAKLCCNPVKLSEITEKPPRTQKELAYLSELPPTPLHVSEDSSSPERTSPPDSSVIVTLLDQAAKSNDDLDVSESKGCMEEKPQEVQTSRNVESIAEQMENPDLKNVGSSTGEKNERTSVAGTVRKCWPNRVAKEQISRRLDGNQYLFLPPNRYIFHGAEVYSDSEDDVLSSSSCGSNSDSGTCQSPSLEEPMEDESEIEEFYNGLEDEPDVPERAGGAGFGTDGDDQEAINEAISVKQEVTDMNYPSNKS
Protocol: A fluorescence polarization or mass spectrometry based assay was used to identify modulators of SIRT1 activity. The same assay may be used to identify modulators of any sirtuin protein. The fluorescence polarization assays utilizes one of two different peptides based on a fragment of p53, a known sirtuin deacetylation target. Compounds 1-18 were tested using a substrate containing peptide 1 having 14 amino acid residues as follows: […](Ac)NleSTEG (SEQ ID NO: 1) wherein K(Ac) is an acetylated lysine residue and Nle is a norleucine. The peptide is labeled with the fluorophore MR121 (excitation 635 nm/emission 680 nm) at the C-terminus and biotin at the N-terminus. The sequence of the peptide substrate is based on p53 with several modifications. In particular, all arginine and leucine residues other than the acetylated lysine have replaced with serine so that the peptide is not susceptible to trypsin cleavage in the absence of deacetylation. In addition, the methionine residue naturally present in the sequence has been replaced with the norleucine because the methionine may be susceptible to oxidation during synthesis and purification. […] This peptide is labeled with the fluorophore MR121 (excitation 635 nm/emission 680 nm) at the C-termini and biotin at the N-termini. The sequence of the peptide substrates are based on p53 with several modifications. In particular, all arginine and leucine residues other than the acetylated lysine residues have replaced with serine so that the peptides are not susceptible to trypsin cleavage in the absence of deacetylation. In addition, the methionine residues naturally present in the sequences have been replaced with the norleucine because the methionine may be susceptible to oxidation during synthesis and purification. […] The peptide is labeled with the fluorophore 5TMR (excitation 540 nm/emission 580 nm) at the C-terminus. The sequence of the peptide substrate is also based on p53 with several modifications. In addition, the methionine residue naturally present in the sequence was replaced with the norleucine because the methionine may be susceptible to oxidation during synthesis and purification.
The peptide substrates were exposed to a sirtuin protein in the presence of NAD^+ to allow deacetylation of the substrate and render it sensitive to cleavage by trypsin. Trypsin was then added and the reaction was carried to completion (i.e., the deacetylated substrate is cleaved) releasing the MR121 or 5TMR fragment. Streptavidin is then added to the reaction where it can bind both the uncleaved substrate (i.e., any remaining acetylated substrate) and the non-fluorescent portion of the cleaved peptide substrate (i.e., the biotin containing fragment). The fluorescence polarization signal observed for the full length peptide substrates bound to streptavidin was higher than the fluorescence polarization signal observed for the released MR121 or 5TMR C-terminal fragment. In this way, the fluorescence polarization obtained is inversely proportional to the level of deacetylation (e.g., the signal is inversely proportional to the activity of the sirtuin protein). Results were read on a microplate fluorescence polarization reader (Molecular Devices Spectramax MD) with appropriate excitation and emission filters.
The fluorescence polarization assays using peptide 1 was conducted as follows: 0.5 μM peptide substrate and 150 μM βNAD^+ is incubated with 0.1 μg/mL of SIRT1 for 60 minutes at 37° C. in a reaction buffer (25 mM Tris-acetate pH8, 137 mM Na—Ac, 2.7 mM K—Ac, 1 mM Mg—Ac, 0.05% Tween-20, 0.1% Pluronic F127, 10 mM CaCl2, 5 mM DTT, 0.025% BSA, 0.15 mM Nicotinamide). Test compounds 1-18 were solubilized in DMSO and added to the reaction at 11 concentrations ranging from 0.7 μM to 100 μM. […]

[2] = molecular target: T1, SIRT1; test: SIRT1 mass spectrometry (MS) based deacetylation assay; type: biochemical; conditions: for EC50: SIRT1 activation, mass spectrometry assay, read-out: ED50 MS ASSAY; for FOLD ACT. MS: fold activation of SIRT1 as determined by MS
[3] = tested on: NCI-H358 cells; test: Cellular ATP Assay (ATPLite 1Step normalized to AlamarBlue viability); type: cell-based; conditions: Homo sapiens, compounds that raised intracellular ATP levels, read-out: ED50 ATP ASSAY
Protocol: Cellular ATP levels are an indirect measurement of cellular metabolic rates and, by extension, mitochondrial function. […] The ATP assay is combined with a cellular viability assay so that cellular ATP levels can be normalized to viable cells. Cellular ATP levels were measured using the ATPLite 1Step Kit (PerkinElmer) and cellular viability was measured using the cell permeable dye, AlamarBlue™.
The Cellular ATP Assay is a multiplexed assay that measures both ATP levels and viability of a given cell sample. This assay is run in a 96-well Assay Plate and data are reported as the [ATP]/viability for each well in the Assay Plate.
The ATPLite 1 Step™ Kit is a single-step luminescent cell-based assay for detection of ATP. The kit contains lyophilized substrate mixture, comprised of D-luciferin and the firefly (Photinus pyralis) enzyme luciferase. Additionally, the kit contains a detergent-based reconstitution buffer that induces the lysis of cellular membranes. The luciferase in the assay mixture catalyzes a reaction between the free cellular ATP and D-luciferin to produce bioluminescence according to the schematic reaction outlined below. The amount of light produced is proportional to the cellular ATP concentration.
The AlamarBlue™ Assay is a single-step assay that utilizes a soluble, non-toxic, cell permeable dye that is added to cell growth media. This dye undergoes electron reduction in viable cells but not dead cells. The reduced dye product gives a fluorescent signal which can be monitored with a fluorescence plate reader (excitation 545 nm and emission 575 nm). The amount of fluorescence generated in a given well is proportional to the number of viable cells. The viability signal generated by this assay is used to normalize the ATP signal from the ATPLite 1Step™ assay results.
The material was dissolved in 100% vehicle (DMSO) to yield a final concentration of 10 mM (stock solution). The stock solution was serially diluted with 100% DMSO as described in SOP 7.10.
In this assay NCI-H358 cells (obtained from the American Tissue Culture Collection, ATCC) were seeded in 96 well microplates (10^4 cells/well). The NCI-H358 Growth Culture Media consists of RPMI 1640 Media supplemented with 10% FBS, […] streptomycin, and 100 units/mL penicillin. […] After 48 hours of compound treatment under cell growth conditions, plates were removed from incubator, and 15 μl of AlamarBlue™ dye was added to each well. Cell microplates were incubated with dye for 2 hours under growth conditions, and fluorescence was subsequently measured using a plate reader. Media containing AlamarBlue™ was removed, and plates were washed in 100 μl of PBS per well. This wash was removed, and 200 μl of 1×ATPLite 1Step reagent was added to each well. Luminescence was then measured using a plate reader. The ATP signal for each well, measured by the luminescence scan, was normalized to its corresponding cell viability value, measured by the fluorescence scan, to generate the average ATP level per viable cell unit (ATP/vCell). The ATP/vCell for each treatment was then normalized to the average vehicle ATP/vCell for its respective cell microplate, yielding the normalized ATP/vCell (norm. ATP/vCell). Finally, the norm. ATP/vCell for each unique treatment was averaged across plate replicates, generating the average norm. ATP/vCell.
Each of these ATP levels was normalized to the cell viability in the corresponding treatment well, generating the ATP/vCell value. Each ATP/vCell value was subsequently normalized to its average Vehicle ATP/vCell values for its respective cell microplate.
Data are represented as the normalized ATP/vCell (arbitrary units). […] These values represent an average of three plate replicates.
A number of compounds were screened for their affect on ATP levels in the assay as described in Example 5. […] NA means that the compound was not tested using the indicated assay.

SMILES	EC50 [1]	EC50 [2]	IC50 [1]	FOLD ACT. MS [2]	EC50 [3]
Cc1ccc(C)n1-c1cccc(C(=O)Nc2ccc(-c3nc4ncccc4o3)cc2)c1 [Compound 19]	> 150 µM	> 150 µM			
O=C(Nc1ccc(-c2nc3ncccc3o2)cc1)c1ccc(N2CCOCC2)cc1 [Compound 20]	> 150 µM	> 150 µM			
O=C(Nc1ccc(-c2nc3ncccc3o2)cc1)c1ccc(N2CCCCC2)cc1 [Compound 21]	> 150 µM	> 150 µM			
COc1ccc(C(=O)Nc2ccc(-c3nc4ncccc4o3)cc2)cc1C(F)(F)F [Compound 22]	> 150 µM	> 150 µM			
CN(C)c1ccc(C(=O)Nc2ccc(-c3nc4ncccc4o3)cc2)cc1 [Compound 24]	> 150 µM	> 150 µM			
COc1cccc(OC)c1C(=O)Nc1ccc(-c2nc3ncccc3o2)cc1 [Compound 27]	> 150 µM	> 150 µM			
O=C(Nc1ccc(-c2nc3ncccc3o2)cc1)c1ccc(N2CCCC2)cc1 [Compound 29]	> 150 µM	> 150 µM			
COc1ccc(C(=O)Nc2ccc(-c3nc4ncccc4o3)cc2)cc1Cl [Compound 30]			> 150 µM		
COc1cccc(C(=O)Nc2ccc(-c3nc4ncccc4o3)cc2)c1C [Compound 31]	> 150 µM	> 150 µM			
O=C(Nc1ccc(-c2nc3ncccc3o2)cc1)c1cccc(OC(F)(F)F)c1 [Compound 32]	> 150 µM	> 150 µM			
COc1ccc(C(=O)Nc2ccc(-c3nc4ncccc4o3)cc2)cc1OC [Compound 33]	> 150 µM	> 150 µM			
COc1ccc(C(=O)Nc2ccc(-c3nc4ncccc4o3)cc2)c(OC)c1OC [Compound 34]	> 150 µM	> 150 µM			
COc1ccc(C(=O)Nc2ccc(-c3nc4ncccc4o3)cc2)cc1 [Compound 35]	> 150 µM	> 150 µM			
COc1ccc(C(=O)Nc2ccc(-c3nc4ncccc4o3)cc2)c(OC)c1 [Compound 36]	> 150 µM	> 150 µM			
O=C(Nc1ccc(-c2nc3ncccc3o2)cc1)c1ccccc1 [Compound 37]	> 150 µM	> 150 µM			
CN(C)c1cccc(C(=O)Nc2cccc(-c3nc4ncccc4o3)c2)c1 [Compound 42]	5 to 50 µM	5 to 50 µM		B (B (Fold Activation <250%))	< 50 µM
CN(C)c1ccc(C(=O)Nc2cccc(-c3nc4ncccc4o3)c2)cc1 [Compound 43]	5 to 50 µM	5 to 50 µM		B (B (Fold Activation <250%))	
COc1cc(C)ccc1C(=O)Nc1cccc(-c2nc3ncccc3o2)c1 [Compound 51]	5 to 50 µM	5 to 50 µM		B (B (Fold Activation <250%))	
COc1ccc(C(=O)Nc2cccc(-c3nc4ncccc4o3)c2)cc1OC [Compound 52]	5 to 50 µM	5 to 50 µM		B (B (Fold Activation <250%))	< 50 µM
COc1ccc(C(=O)Nc2cccc(-c3nc4ncccc4o3)c2)c(OC)c1 [Compound 55]	5 to 50 µM	5 to 50 µM		B (B (Fold Activation <250%))	
Cc1cc(SCc2sc(-c3ccc(C(F)(F)F)cc3)nc2C)ccc1OCC(=O)O [Compound 291]			51 to 100 µM		
